This passage reports inhibition and IC50 results from ChEMBL document CHEMBL3596143, “Identification of tanshinone IIA as a natural monoacylglycerol lipase inhibitor by combined in silico and in vitro approach” (Medchemcomm, 2014).

In assay [1] the target is T1, Monoglyceride lipase (Homo sapiens) (UniProt Q99685).
T1 sequence (whole entry): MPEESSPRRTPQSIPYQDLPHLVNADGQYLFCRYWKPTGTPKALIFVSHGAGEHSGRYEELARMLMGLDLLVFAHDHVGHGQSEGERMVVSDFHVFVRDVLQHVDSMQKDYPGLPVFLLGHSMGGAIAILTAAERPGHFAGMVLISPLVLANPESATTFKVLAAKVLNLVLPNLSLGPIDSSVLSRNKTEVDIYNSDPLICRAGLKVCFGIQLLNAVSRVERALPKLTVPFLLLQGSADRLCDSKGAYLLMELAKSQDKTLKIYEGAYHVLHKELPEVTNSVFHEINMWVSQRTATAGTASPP
The experiment in a line: Inhibition of MAGL (unknown origin) at […] after 10 mins relative to control.

In assay [2] the target is T1, Monoglyceride lipase (Homo sapiens). The experiment in a line: Inhibition of MAGL (unknown origin) at 125 uM after 10 mins relative to control.
The target of another assay is T2, Monoglyceride lipase (Homo sapiens, UniProt Q99685).
T2 sequence (Q99685 whole entry): T1 sequence (whole entry)
Put plainly: (§1) Inhibition of MAGL (unknown origin) after 10 mins.

The target in assay [3] is T1, Monoglyceride lipase (Homo sapiens). The description is as §1.
The target is the same in assay [4]. The experiment in a line: Inhibition of MAGL (unknown origin) at 250 uM after 10 mins relative to control.
Assay [5] shares this target. The experiment in a line: Inhibition of MAGL (unknown origin) at 500 uM after 10 mins relative to control.
Assay [6] has the same target. The settings on record: 2 mM.
Description: Inhibition of MAGL (unknown origin) at 2 mM after 10 mins relative to control

Regarding `O=c1c(-c2ccc(O)cc2)coc2c([C@@H]3O[C@H](CO)[C@@H](O)[C@H](O)[C@H]3O)c(O)ccc12`, the inhibition in assay [1] is 52%.

Molecule `CC1(C)CC[C@]2(C(=O)O)CC[C@]3(C)C(=CC[C@@H]4[C@@]5(C)CC[C@H](O)C(C)(C)[C@@H]5CC[C@]43C)[C@@H]2C1` yielded an inhibition in assay [1] of 1%.

For `Cc1coc2c1C(=O)C(=O)c1c-2ccc2c1CCCC2(C)C` [TANSHINONE IIA], the inhibition in assay [2] was 72%; in assay [1], 95%; in assay [3] it was “Dose-dependent effect”; in assay [4], 79%; in assay [5], 85%. For the same molecule, the concentration for half-maximal inhibition (IC50) against Monoglyceride lipase came to 48 µM.

The molecule `CC1(C)OC(=O)C=C[C@]2(C)[C@H]3CC[C@@]4(C)[C@H](c5ccoc5)OC(=O)[C@H]5O[C@]54[C@]3(C)C(=O)C[C@@H]12` returned an inhibition in assay [1] of 4%.

As to `Cc1coc2c1C(=O)C(=O)c1c-2ccc2c(C)cccc12`, the inhibition in assay [2] amounted to 12%; in assay [1], 58%; in assay [4], 15%; in assay [5], 31%.

In the case of `O=C(Oc1ccc([N+](=O)[O-])cc1)N1CCC(C(O)(c2ccc3c(c2)OCO3)c2ccc3c(c2)OCO3)CC1`, in assay [6], the inhibition is 94%.

In general, inhibition refers to the drop in the measured response relative to a control, in per cent. One may read the IC50 as the concentration needed to halve the response being measured. Read a high IC50 as lower potency.
